Test results reported in US20110076258A1, “METHODS OF MODULATING T CELL- DEPENDENT IMMUNE RESPONSES” (Converge Biotech Inc., priority 2008, published 2011).
“Also recorded” adds a separate entry of the source.

Legend:
[1] = test system: naïve CD4^+ T cells / CD4^+CD25^+ natural Treg cells; assay: Treg differentiation and expansion in vitro (anti-CD3, irradiated splenocytes, IL-2); type: cell-based
Procedure: Treg cell generation was analyzed after 7-10 days of culture by flow cytometry.

human T cells = assay: Proliferation of CFSE-loaded T cells, plate-bound anti-CD3/28 (FACS); type: cell-based; conditions: 100 μM oATP or 200 μM of PX10 peptide, four days
Procedure: Our results point to a role for pannexin hemichannels in ATP release in T cells. […] CFSE-loaded human T cells were stimulated with plate-bound anti-CD3/28 antibodies in the presence of 100 μM oATP or 200 μM of PX10 peptide. Four days later, the proliferation was measured by FACS analysis.

mouse T cells = assay: IL-2 secretion by ELISA; type: cell-based
ERK = ERK phosphorylation time course after CD3 stimulation, TCR signaling blocked with PP2 at 30 min; type: cell-based, mouse; conditions: added in combination with PP2
Procedure: After 30 min of stimulation, cells were either left untreated (first panel on the left), or treated with the src-like kinase inhibitor PP2 either alone (second panel) or in combination with oATP (third panel) or ARL (fourth panel).
In order to distinguish between TCR dependent and independent ERK activation, TCR signaling was blocked at 30 min after CD3 activation with the tyrosine kinase inhibitor PP2, which inhibits TCR dependent Ick/fyn src-like kinase activity.

[2] = test system: INS-HA transgenic RAG-2^−/− mice; assay: Diabetes by adoptive transfer of TCR-HA CD4 cells; type: in vivo, mouse
[3] = test system: naïve CD4 crt^−/− and crt^+/+ T cells; assay: CD62L re-expression after activation with plate bound CD3 and CD28 antibodies (FACS); type: cell-based, mouse; conditions: crt^−/− and wild-type cells, 38 h
Procedure: FIG. 3: Mitochondrial Ca^2+ uptake during T cell activation leads to ATP synthesis and release. • a) ATP synthesis at different time points after T cell activation with CD3 antibodies in crt^−/− and crt^+/+ sorted naïve CD4^+ T cells (see Example 2). • b) ATP production upon T cell activation in the absence (control) or presence of the ATP synthetase inhibitor oligomycin. • c) FACS profile of CD62L expression on the surface of sorted naïve CD4 crt^−/− and crt^+/+ T cells at 38 h following activation with plate bound CD3 and CD28 antibodies. The same experiment was performed in the presence of oATP. • d) Naïve CD4^+ T cells were stained with the nucleotide binding compound quinacrine (see Example 2). The homogenous cytosolic staining indicates the absence of secretory vesicles containing ATP. • e) Subcellular fractionation of non-stimulated and activated naïve T cells on a continuous sucrose gradient (see Example 2). ATP was detected only in fractions containing also the cytosolic protein Zap-70 and not in those characterized by the small vesicular marker cellubrevin.
This shedding is thought to be inhibited by the P2X receptor antagonist oATP (Gu et al., Blood 92:946-951 (1998)). In vitro T cell activation of CD4 naïve T cells causes shedding of CD62L, which is progressively re-expressed following TCR triggering.

Egr2 and Egr3 = assay: Real-time PCR of anergy related genes Egr2 and Egr3; type: cell-based, mouse; conditions: 2 h and 16 h after T cell activation
Description: (§1) NFAT nuclear translocation without concomitant MAPK activation, which can be obtained by ionomycin treatment, implements a transcriptional program leading to T cell anergy (Macian et al., Cell 109:719-731 (2002)). […] Then, we hypothesized that activation of T cells in the presence of oATP could induce T cell anergy. […] The effect of oATP was not due to altered turn-over of the TCR/CD3 complex at the cell surface, as determined by FACS analysis (data not shown).

DBA/1 mice = assay: Collagen-induced arthritis model of rheumatoid arthritis; type: in vivo, mouse
cd3ε^−/− mice = assay: Inflammatory bowel disease induced by naïve CD4^+ T cells; type: in vivo, mouse
Description: FIG. 8: Amelioration of inflammatory bowel disease by oATP treatment. • a) Photographs of representative mesenteric lymph nodes, spleens and colons from cd3ε^−/− mice adoptively transferred with CD4^+/CD25^+ and CD4^+ cells (see Example 5). […] Bar=1 cm • b) Histograms representing inflammation scores in animals treated as indicated (see methods section) (mean±SD; n=5, CD4^+/25^+ healthy control group; n=7, CD4^+ untreated group; n=8, CD4^+ oATP-treated group). • c) Hematoxilin/eosin (upper panels) and Alcian/PAS (lower panels) staining of colon sections from the indicated animals (all the microscopic pictures in the box were taken at the same magnification; scale bar=50 μm). […] Partial goblet cell depletion and reduction in size of Alcian-PAS-positive droplets are also noticeable (arrowheads); in mice reconstituted with CD4 cells and treated with PBS, the lamina propria is markedly expanded by inflammatory cell infiltrate with focal findings of crypt abscessation (arrow). Colonic crypts are also severely dysplastic with almost complete loss of goblet cells. • d) Cell recoveries from mesenteric lymph nodes and spleen of the indicated animals.
e) Absolute numbers of IL-2-, TNFα-, IFNγ- and IL-17-producing CD4^+ T cells in mesenteric lymph nodes from the indicated mice (mean±SD; n=5, CD4^+/25^+ healthy group; n=7, CD4^+ untreated group; n=8, CD4^+ oATP-treated group). *, P<0.05, **, P<0.001, ***, P<0.0001 • f) Absolute numbers of CD44^+CD62L^− effector/memory and CD69^+ CD4 cells recovered from mesenteric lymph nodes and spleen of the indicated group of animals (bars represent mean values).
To test oATP in a non-transgenic model of T cell-mediated inflammation, we induced inflammatory bowel disease (IBD) in T lymphopenic cd3ε^−/− mice by injecting naïve CD4^+ T cells. As a healthy control we used cd3ε^−/− mice injected with naïve CD4^+ T cells together with CD4^+CD25^+ cells comprising regulatory T cells (Treg). […] Starting at day 15 after cell transfer, the IBD group was daily injected intravenously either with PBS or oATP.

[4] = test system: OVA-specific T cell clones; assay: Calcium imaging of CD3 responsiveness after pre-stimulation (anergy); type: cell-based, mouse; conditions: pre-incubated 16 h
Description: as §1

naive CD4 T cells = assay: T cell proliferation by CFSE dilution, plate-bound CD3 and CD28 mAbs; type: cell-based, mouse

Compound: Nc1ncnc2c1ncn2[C@@H](C=O)O[C@@H](C=O)COP(=O)(O)OP(=O)(O)OP(=O)(O)O [oATP]
- Foxp3 by quantitative RT-PCR ([1]; first 6 days after anti-CD3 stimulation): progressive upregulation
- percentage of CD4^+CD25^highFoxp3^+ Treg cells ([1]; naïve CD4^+ T cells, oATP 100 μM): significantly enhanced
- expansion of Treg cells, Foxp3 expression level ([1]; sorted CD4^+CD25^+ natural Treg cells, oATP 100 μM): higher expression levels of Foxp3
- T cell proliferation (human T cells): strongly inhibited
- IL-2 secretion (mouse T cells): strongly inhibited
- ERK phosphorylation / activity (ERK): significant inhibition; also recorded: almost completely abolished
- Blood glucose ([2]; day 12, twice daily i.v. and i.p. day 1 to 10): normal
- CD69^+ cells in the pancreas ([2]; mouse, in vivo): undetectable
- TCR-HA^+ cells in the pancreas ([2]; mouse, in vivo): barely detectable
- TCR-HA^+ cells in the spleen ([2]; mouse, in vivo): significantly reduced
- pathological findings in the pancreas ([2]; mouse, in vivo): no relevant pathological findings
- IL-6, IFN-γ and TNF-α on a per-cell basis, ex vivo splenocytes pulsed with HA 110-120 peptide ([2]; versus PBS-treated control group): significant reduction
- CD62L re-expression after activation [3]: enhanced and identical re-expression efficiency
- Egr2 and Egr3 transcripts (Egr2 and Egr3): significant upregulation
- clinical score variation versus control group (DBA/1 mice; 3 mM in 100 μl i.v., after the initial five days of treatment): consistently lower
- collagen-specific antibodies (type II collagen ELISA) (DBA/1 mice; versus control mice): decreased
- macroscopic intestine phenotype (thickening of the bowel wall, unformed or absent stool) (cd3ε^−/− mice; 5 weeks after reconstitution, daily i.v. from day 15): significantly ameliorated
- number of proinflammatory cytokine (IL-2, IFN-γ and TNF-α)-secreting cells (cd3ε^−/− mice; mesenteric lymph nodes): significantly reduced
- cellularity, CD4^+ effector/memory subset (CD44^+62L^−) and CD69^+ cells in mesenteric lymph nodes and spleen (cd3ε^−/− mice; mouse, in vivo): undistinguishable from healthy controls
- colon histology (hematoxilin/eosin, Alcian/PAS) (cd3ε^−/− mice; mouse, in vivo): lamina propria is focally expanded by inflammatory cells infiltrate
- inflammation score versus animals injected with CD4^+ and Treg cells (cd3ε^−/− mice; mouse, in vivo): not significantly different
- number of IL-17 secreting cells (cd3ε^−/− mice; mouse, in vivo): analogous to the number in control mice
- spleen and mesenteric lymph nodes size (cd3ε^−/− mice; mouse, in vivo): normal in size
- responsiveness in calcium imaging of previously stimulated T cells [4]: reduced responsiveness
- T cell proliferation (CFSE dilution) (naive CD4 T cells): almost completely inhibited
